Source: patent publication US12310975B2, “Modulators of BCL6 proteolysis and associated methods of use” (Arvinas Operations, Inc., priority 2019, dated 2025)

What was measured:
[1] = target: T1, BCL6 (Homo sapiens (Human), UniProt P41182); experiment: Immunofluorescence high content imaging of BCL6 degradation in T47D cells; type: cell-based; settings: T47D
Method in brief: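 T47D cells were treated for 3 days at 37 °C with 11-point 3-fold dilutions of bifunctional degrader (final top 0.1 or 1 μM). BCL6 was detected by immunofluorescence after PFA fixation, with Hoechst and cell mask counterstains, and imaged at 10×, 4 fields/well.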

[2] = target: T1, BCL6; experiment: BCL6 TR-FRET assay (BCL6-Avitag-Biotin / BCoR-Cy5 peptide); type: binding; settings: read-out: IC50
Method in brief: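 After 30 min room-temperature preincubation of compound titrations with 2 nM biotinylated BCL6-Avitag, 100 nM Cy5-labelled BCoR peptide plus 2 nM Eu-streptavidin were added and TR-FRET read 2 h later. HEPES pH 7.5/125 mM NaCl buffer with Triton X, glutathione (or DTT) and BSA.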

Dmax [1]	IC50 [2]	Structure (SMILES)
50 to 70%	< 0.01 µM	CNC(=O)COc1cc2cc(Nc3nc(N4CCC(CN5CCC6(CCN(c7ccc8c(c7)C(=O)N(C7CCC(=O)NC7=O)C8=O)CC6)C5)CC4)ncc3Cl)ccc2n(C(C)C)c1=O (centres unmarked) [compound 494, 2-{[6-({5-chloro-2-[4-({8-[2-(2,6-dioxopiperidin-3-yl)-1,3-dioxo-2,3-dihydro-1H-isoindol-5-yl]-2,8-diazaspiro[4.5]decan-2-yl}methyl)piperidin-1-yl]pyrimidin-4-yl}amino)-2-oxo-1-(propan-2-yl)-1,2-dihydroquinolin-3-yl]oxy}-N-methylacetamide]
50 to 70%	< 0.01 µM	CNC(=O)COc1cc2cc(Nc3nc(N4CCC(CN5CCC6(CC5)CCN(c5ccc7c(c5)C(=O)N(C5CCC(=O)NC5=O)C7=O)CC6)CC4)ncc3Cl)ccc2n(C(C)C)c1=O (centres unmarked) [compound 495, 2-{[6-({5-chloro-2-[4-({9-[2-(2,6-dioxopiperidin-3-yl)-1,3-dioxo-2,3-dihydro-1H-isoindol-5-yl]-3,9-diazaspiro[5.5]undecan-3-yl}methyl)piperidin-1-yl]pyrimidin-4-yl}amino)-2-oxo-1-(propan-2-yl)-1,2-dihydroquinolin-3-yl]oxy}-N-methylacetamide]
50 to 70%	< 0.01 µM	CNC(=O)COc1cc2cc(Nc3nc(N4CCC5(CCN(CC6CCN(c7ccc8c(c7)C(=O)N(C7CCC(=O)NC7=O)C8=O)CC6)CC5)CC4)ncc3Cl)ccc2n(C(C)C)c1=O (centres unmarked) [compound 496, 2-{[6-({5-chloro-2-[9-({1-[2-(2,6-dioxopiperidin-3-yl)-1,3-dioxo-2,3-dihydro-1H-isoindol-5-yl]piperidin-4-yl}methyl)-3,9-diazaspiro[5.5]undecan-3-yl]pyrimidin-4-yl}amino)-2-oxo-1-(propan-2-yl)-1,2-dihydroquinolin-3-yl]oxy}-N-methylacetamide]
< 50%	< 0.01 µM	CNC(=O)COc1cc2cc(Nc3nc(N4CCC(CN5CCC6(CC5)CCN(c5ccc(N7CCC(=O)NC7=O)cc5)C6)CC4)ncc3Cl)ccc2n(C(C)C)c1=O [compound 497, 2-{[6-({5-chloro-2-[4-({2-[4-(2,4-dioxo-1,3-diazinan-1-yl)phenyl]-2,8-diazaspiro[4.5]decan-8-yl}methyl)piperidin-1-yl]pyrimidin-4-yl}amino)-2-oxo-1-(propan-2-yl)-1,2-dihydroquinolin-3-yl]oxy}-N-methylacetamide]
≥ 70%	< 0.01 µM	CNC(=O)COc1cc2cc(Nc3nc(N4CCC(CN5CC(N6CCN(c7cccc8c7C(=O)N(C7CCC(=O)NC7=O)C8=O)CC6)C5)CC4)ncc3Cl)ccc2n(C(C)C)c1=O (centres unmarked) [compound 499, 2-({6-[(5-chloro-2-{4-[(3-{4-[2-(2,6-dioxopiperidin-3-yl)-1,3-dioxo-2,3-dihydro-1H-isoindol-4-yl]piperazin-1-yl}azetidin-1-yl)methyl]piperidin-1-yl}pyrimidin-4-yl)amino]-2-oxo-1-(propan-2-yl)-1,2-dihydroquinolin-3-yl}oxy)-N-methylacetamide]
50 to 70%	< 0.01 µM	CNC(=O)COc1cc2cc(Nc3nc(N4CCC(CN5CC6(CCN(c7ccc8c(c7)C(=O)N(C7CCC(=O)NC7=O)C8=O)C6)C5)CC4)ncc3Cl)ccc2n(C(C)C)c1=O (centres unmarked) [compound 500, 2-{[6-({5-chloro-2-[4-({6-[2-(2,6-dioxopiperidin-3-yl)-1,3-dioxo-2,3-dihydro-1H-isoindol-5-yl]-2,6-diazaspiro[3.4]octan-2-yl}methyl)piperidin-1-yl]pyrimidin-4-yl}amino)-2-oxo-1-(propan-2-yl)-1,2-dihydroquinolin-3-yl]oxy}-N-methylacetamide]
50 to 70%	< 0.01 µM	CNC(=O)COc1cc2cc(Nc3nc(N4CCC(CN5CC6(CCN(c7cccc8c7C(=O)N(C7CCC(=O)NC7=O)C8=O)C6)C5)CC4)ncc3Cl)ccc2n(C(C)C)c1=O (centres unmarked) [compound 501, 2-{[6-({5-chloro-2-[4-({6-[2-(2,6-dioxopiperidin-3-yl)-1,3-dioxo-2,3-dihydro-1H-isoindol-4-yl]-2,6-diazaspiro[3.4]octan-2-yl}methyl)piperidin-1-yl]pyrimidin-4-yl}amino)-2-oxo-1-(propan-2-yl)-1,2-dihydroquinolin-3-yl]oxy}-N-methylacetamide]
50 to 70%	< 0.01 µM	CNC(=O)COc1cc2cc(Nc3nc(N4CCC(CN5CCC6(C5)CN(c5cccc7c5C(=O)N(C5CCC(=O)NC5=O)C7=O)C6)CC4)ncc3Cl)ccc2n(C(C)C)c1=O (centres unmarked) [compound 502, 2-{[6-({5-chloro-2-[4-({2-[2-(2,6-dioxopiperidin-3-yl)-1,3-dioxo-2,3-dihydro-1H-isoindol-4-yl]-2,6-diazaspiro[3.4]octan-6-yl}methyl)piperidin-1-yl]pyrimidin-4-yl}amino)-2-oxo-1-(propan-2-yl)-1,2-dihydroquinolin-3-yl]oxy}-N-methylacetamide]
≥ 70%	< 0.01 µM	CNC(=O)COc1cc2cc(Nc3nc(N4CCN(CC5CCN(c6cccc7c6C(=O)N(C6CCC(=O)NC6=O)C7=O)CC5)CC4)ncc3Cl)ccc2n(CCC2COC2)c1=O (centres unmarked) [compound 503, 2-{[6-({5-chloro-2-[4-({1-[2-(2,6-dioxopiperidin-3-yl)-1,3-dioxo-2,3-dihydro-1H-isoindol-4-yl]piperidin-4-yl}methyl)piperazin-1-yl]pyrimidin-4-yl}amino)-1-[2-(oxetan-3-yl)ethyl]-2-oxo-1,2-dihydroquinolin-3-yl]oxy}-N-methylacetamide]
≥ 70%	0.05 to 0.1 µM	CNC(=O)COc1cc2cc(Nc3nc(N4CCC[C@H](COc5cccc6c5C(=O)N(C5CCC(=O)NC5=O)C6=O)C4)ncc3Cl)ccc2n(CCC2COC2)c1=O (stereo partly drawn) [compound 504, 2-{[6-({5-chloro-2-[(3S)-3-({[2-(2,6-dioxopiperidin-3-yl)-1,3-dioxo-2,3-dihydro-1H-isoindol-4-yl]oxy}methyl)piperidin-1-yl]pyrimidin-4-yl}amino)-1-[2-(oxetan-3-yl)ethyl]-2-oxo-1,2-dihydroquinolin-3-yl]oxy}-N-methylacetamide]
50 to 70%	0.05 to 0.1 µM	Cn1c(=O)n(CCC(C)(C)O)c2cc(Nc3nc(N4CCN(CC5CCN(c6cccc7c6C(=O)N(C6CCC(=O)NC6=O)C7=O)CC5)CC4)ncc3Cl)ccc21 (centres unmarked) [compound 505, 4-(4-{[4-(5-chloro-4-{[3-(3-hydroxy-3-methylbutyl)-1-methyl-2-oxo-2,3-dihydro-1H-1,3-benzodiazol-5-yl]amino}pyrimidin-2-yl)piperazin-1-yl]methyl}piperidin-1-yl)-2-(2,6-dioxopiperidin-3-yl)-2,3-dihydro-1H-isoindole-1,3-dione]
50 to 70%	< 0.01 µM	CNC(=O)COc1cc2cc(Nc3nc(N4CCC(CN5CCC6(CCN(c7cccc8c7C(=O)N(C7CCC(=O)NC7=O)C8=O)CC6)C5)CC4)ncc3Cl)ccc2n(C(C)C)c1=O (centres unmarked) [compound 506, 2-{[6-({5-chloro-2-[4-({8-[2-(2,6-dioxopiperidin-3-yl)-1,3-dioxo-2,3-dihydro-1H-isoindol-4-yl]-2,8-diazaspiro[4.5]decan-2-yl}methyl)piperidin-1-yl]pyrimidin-4-yl}amino)-2-oxo-1-(propan-2-yl)-1,2-dihydroquinolin-3-yl]oxy}-N-methylacetamide]
≥ 70%	< 0.01 µM	CNC(=O)COc1cc2cc(Nc3nc(N4CCC5(CCN(CC6CCN(c7ccc8c(c7)C(=O)N(C7CCC(=O)NC7=O)C8=O)CC6)C5)CC4)ncc3Cl)ccc2n(C(C)C)c1=O (centres unmarked) [compound 507, 2-{[6-({5-chloro-2-[2-({1-[2-(2,6-dioxopiperidin-3-yl)-1,3-dioxo-2,3-dihydro-1H-isoindol-5-yl]piperidin-4-yl}methyl)-2,8-diazaspiro[4.5]decan-8-yl]pyrimidin-4-yl}amino)-2-oxo-1-(propan-2-yl)-1,2-dihydroquinolin-3-yl]oxy}-N-methylacetamide]
≥ 70%	< 0.01 µM	CNC(=O)COc1cc2cc(Nc3nc(N4CCC5(CCN(CC6CCN(c7cccc8c7C(=O)N(C7CCC(=O)NC7=O)C8=O)CC6)C5)CC4)ncc3Cl)ccc2n(C(C)C)c1=O (centres unmarked) [compound 508, 2-{[6-({5-chloro-2-[2-({1-[2-(2,6-dioxopiperidin-3-yl)-1,3-dioxo-2,3-dihydro-1H-isoindol-4-yl]piperidin-4-yl}methyl)-2,8-diazaspiro[4.5]decan-8-yl]pyrimidin-4-yl}amino)-2-oxo-1-(propan-2-yl)-1,2-dihydroquinolin-3-yl]oxy}-N-methylacetamide]
50 to 70%	< 0.01 µM	CNC(=O)COc1cc2cc(Nc3nc(N4CCC(CN5CCC6(C5)CN(c5ccc7c(c5)C(=O)N(C5CCC(=O)NC5=O)C7=O)C6)CC4)ncc3Cl)ccc2n(C(C)C)c1=O (centres unmarked) [compound 510, 2-{[6-({5-chloro-2-[4-({2-[2-(2,6-dioxopiperidin-3-yl)-1,3-dioxo-2,3-dihydro-1H-isoindol-5-yl]-2,6-diazaspiro[3.4]octan-6-yl}methyl)piperidin-1-yl]pyrimidin-4-yl}amino)-2-oxo-1-(propan-2-yl)-1,2-dihydroquinolin-3-yl]oxy}-N-methylacetamide]
≥ 70%	< 0.01 µM	CNC(=O)COc1cc2cc(Nc3nc(N4CC5(CCN(CC6CCN(c7cccc8c7C(=O)N(C7CCC(=O)NC7=O)C8=O)CC6)C5)C4)ncc3Cl)ccc2n(C(C)C)c1=O (centres unmarked) [compound 511, 2-{[6-({5-chloro-2-[6-({1-[2-(2,6-dioxopiperidin-3-yl)-1,3-dioxo-2,3-dihydro-1H-isoindol-4-yl]piperidin-4-yl}methyl)-2,6-diazaspiro[3.4]octan-2-yl]pyrimidin-4-yl}amino)-2-oxo-1-(propan-2-yl)-1,2-dihydroquinolin-3-yl]oxy}-N-methylacetamide]
